Assay results from US5593985A, “Cephalosporin compounds” (priority 1994, dated 1997).
In brackets after ≈: the same amount, converted by molar mass. Like-named read-outs stand apart in the source and are kept apart here.

Experiments:
Assay type in all cases: cell-based
Escherichia coli DC 0 = assay: MIC, standard strain 8; conditions: DC0, E. coli DC 0, two-fold dilution, Muller Hinton agar, 10^7 CFU/ml, 37° C., 18 hours, read-out: Minimal Inhibitory Concentration(MIC)
Experimental: (§1) In order to illustrate antibiotic effectiveness of the compounds of the present invention, the minimal inhibitory concentrations (MIC's) of the representative compounds were determined against standard strains and compared with ceftazidime and cefpirome, which were used as control compounds.
(§2) The MIC values were taken by employing a two-fold dilution method: that is, two-fold serial dilutions of each of the test compounds were made from initial concentration of […]; each 1.5 ml of them was dispersed in 13.5 ml of Muller Hinton agar medium to adjust to […]; the standard test strain which had the concentration of 10^7 CFU/ml was inoculated by medium;and these were incubated at 37° C. for 18 hours.
(§3) The test used twenty kinds of standard test strains which induced urinary tract infections, respiratory organ infections, skin soft tissue infections, plasma infections, gastrointestinal infections, central nervous system infections, most of which produce β-lactamase.

[1] = test system: Pseudomonas aeruginosa 9.027; assay: MIC, standard strain 12; conditions: Pseudomonas aeruginosa; P. aeruginosa 9.027; two-fold dilution, Muller Hinton agar, 10^7 CFU/ml, 37° C., 18 hours; read-out: Minimal Inhibitory Concentration(MIC)
Experimental: as §1, §2
as §3, with “β-lactamase. The standard test strains used are as follows:” for “β-lactamase.”
12. Pseudomonas aeruginosa 9.027

Salmonella typhimurium = assay: MIC, standard strain 16; conditions: Salmonella enterica, read-out: Minimal Inhibitory Concentration(MIC)
Experimental: as §1, §2
as §3, with “β-lactamase. The standard test strains used are as follows:” for “β-lactamase.”
16. Salmonella typhimurium

Escherichia coli TEM = assay: MIC, standard strain 10; conditions: 18 h, read-out: Minimal Inhibitory Concentration(MIC)
Experimental: as §1, §2, §3

[2] = test system: Enterobacter cloacae P 99; assay: MIC, standard strain 19; conditions: P99, 18 h, read-out: Minimal Inhibitory Concentration(MIC)
Experimental: as §1, §2
as §3, with “β-lactamase. The standard test strains used are as follows:” for “β-lactamase.”
19. Enterobacter cloacae P 99

[3] = test system: Klebsiella aerogenes 1552 E; assay: MIC, standard strain 18; conditions: K. aerogenes 1552 E, two-fold dilution, Muller Hinton agar, 10^7 CFU/ml, 37° C., 18 hours, read-out: Minimal Inhibitory Concentration(MIC)
Experimental: as §1, §2
as §3, with “β-lactamase. The standard test strains used are as follows:” for “β-lactamase.”
18. Klebsiella aerogenes 1552 E

[4] = test system: Pseudomonas aeruginosa 1771; assay: MIC, standard strain 14; conditions: Pseudomonas aeruginosa; P. aeruginosa 1771; two-fold dilution, Muller Hinton agar, 10^7 CFU/ml, 37° C., 18 hours; read-out: Minimal Inhibitory Concentration(MIC)
Experimental: as §1, §2
as §3, with “β-lactamase. The standard test strains used are as follows:” for “β-lactamase.”
14. Pseudomonas aeruginosa 1771

[5] = test system: Staphylococcus aureus 285; assay: MIC, standard strain 5; conditions: Staphylococcus aureus; S. aureus 285; two-fold dilution, Muller Hinton agar, 10^7 CFU/ml, 37° C., 18 hours; read-out: Minimal Inhibitory Concentration(MIC)
Experimental: as §1, §2
as §3, with “β-lactamase. The standard test strains used are as follows:” for “β-lactamase.”
5. Staphylococcus aureus 285

[6] = test system: Streptococcus pyogenes A 308; assay: MIC, standard strain 1; conditions: read-out: Minimal Inhibitory Concentration(MIC)
Experimental: as §1, §2
as §3, with “β-lactamase. The standard test strains used are as follows:” for “β-lactamase.”
1. Streptococcus pyogenes A 308

[7] = test system: Enterobacter cloacae 1321 E; assay: MIC, standard strain 20; conditions: read-out: Minimal Inhibitory Concentration(MIC)
Experimental: as §1, §2
as §3, with “β-lactamase. The standard test strains used are as follows:” for “β-lactamase.”
20. Enterobacter cloacae 1321 E

[8] = test system: Pseudomonas aeruginosa 1771M; assay: MIC, standard strain 15; conditions: 18 h, read-out: Minimal Inhibitory Concentration(MIC)
Experimental: as §1, §2
as §3, with “β-lactamase. The standard test strains used are as follows:” for “β-lactamase.”
15. Pseudomonas aeruginosa 1771M

[9] = test system: Streptococcus pyogenes A 77; assay: MIC, standard strain 2; conditions: A77, S. pyogenes A 77, two-fold dilution, Muller Hinton agar, 10^7 CFU/ml, 37° C., 18 hours, read-out: Minimal Inhibitory Concentration(MIC)
Experimental: as §1, §2
as §3, with “β-lactamase. The standard test strains used are as follows:” for “β-lactamase.”
2. Streptococcus pyogenes A 77

[10] = test system: Staphylococcus aureus SG 511; assay: MIC, standard strain 4; conditions: read-out: Minimal Inhibitory Concentration(MIC)
Experimental: as §1, §2
as §3, with “β-lactamase. The standard test strains used are as follows:” for “β-lactamase.”
4. Staphylococcus aureus SG 511

Escherichia coli 0 55 = assay: MIC, standard strain 7; conditions: 055, E. coli 0 55, two-fold dilution, Muller Hinton agar, 10^7 CFU/ml, 37° C., 18 hours, read-out: Minimal Inhibitory Concentration(MIC)
Experimental: as §1, §2, §3

Streptococcus faecium 8b = assay: MIC, standard strain 3; conditions: Enterococcus faecium, read-out: Minimal Inhibitory Concentration(MIC)
Experimental: as §1, §2
as §3, with “β-lactamase. The standard test strains used are as follows:” for “β-lactamase.”
3. Streptococcus faecium 8b

Escherichia coli 1507 E = assay: MIC, standard strain 11; conditions: E. coli 1507 E, two-fold dilution, Muller Hinton agar, 10^7 CFU/ml, 37° C., 18 hours, read-out: Minimal Inhibitory Concentration(MIC)
Experimental: as §1, §2, §3

Escherichia coli DC 2 = assay: MIC, standard strain 9; conditions: DC2, E. coli DC 2, two-fold dilution, Muller Hinton agar, 10^7 CFU/ml, 37° C., 18 hours, read-out: Minimal Inhibitory Concentration(MIC)
Experimental: as §1, §2, §3

[11] = test system: Staphylococcus aureus 503; assay: MIC, standard strain 6; conditions: read-out: Minimal Inhibitory Concentration(MIC)
Experimental: as §1, §2
as §3, with “β-lactamase. The standard test strains used are as follows:” for “β-lactamase.”
6. Staphylococcus aureus 503

[12] = test system: Pseudomonas aeruginosa 1592 E; assay: MIC, standard strain 13; conditions: P. aeruginosa 1592 E, two-fold dilution, Muller Hinton agar, 10^7 CFU/ml, 37° C., 18 hours, read-out: Minimal Inhibitory Concentration(MIC)
Experimental: as §1, §2
as §3, with “β-lactamase. The standard test strains used are as follows:” for “β-lactamase.”
13. Pseudomonas aeruginosa 1592 E

[13] = S. typhimurium, two-fold dilution, Muller Hinton agar, 10^7 CFU/ml, 37° C., 18 hours
[14] = A308, S. pyogenes A 308, two-fold dilution, Muller Hinton agar, 10^7 CFU/ml, 37° C., 18 hours
[15] = SG511, S. aureus SG 511, two-fold dilution, Muller Hinton agar, 10^7 CFU/ml, 37° C., 18 hours
[16] = S. faecium 8b, two-fold dilution, Muller Hinton agar, 10^7 CFU/ml, 37° C., 18 hours
[17] = Staphylococcus aureus, S. aureus 503, two-fold dilution, Muller Hinton agar, 10^7 CFU/ml, 37° C., 18 hours
[18] = E. cloacae 1321 E, two-fold dilution, Muller Hinton agar, 10^7 CFU/ml, 37° C., 18 hours

| Compound | MIC (Escherichia coli DC 0) [µg/mL] | MIC [1] [µg/mL] | MIC (Salmonella typhimurium; [13]) [µg/mL] | MIC (Escherichia coli TEM) [µg/mL] | MIC [2] [µg/mL] | MIC [3] [µg/mL] | MIC [4] [µg/mL] | MIC [5] [µg/mL] | MIC [6, 14] [µg/mL] | MIC [8] [µg/mL] | MIC [9] [µg/mL] | MIC [10, 15] [µg/mL] | MIC (Escherichia coli 0 55) [µg/mL] | MIC (Streptococcus faecium 8b; [16]) [µg/mL] | MIC (Escherichia coli 1507 E) [µg/mL] | MIC (Escherichia coli DC 2) [µg/mL] | MIC [11, 17] [µg/mL] | MIC [12] [µg/mL] | MIC [7, 18] [µg/mL] | also measured |
| --- | --- | --- | --- | --- | --- | --- | --- | --- | --- | --- | --- | --- | --- | --- | --- | --- | --- | --- | --- | --- |
| NC(=O)c1cc[n+](CC2=C(C(=O)[O-])N3C(=O)[C@@H](NC(=O)/C(=N\OCCF)c4csc(N)n4)[C@H]3SC2)c2c1CCC2 [Example 14, 7-β-[(Z)-2-(2-aminothiazol-4-yl)-2-(2-fluoroethoxyimino)acetamido]-3-[(2,3-cyclopenteno-4-carbamoyl-l-pyridinium)methyl]-3-cephem-4-carboxylate] | 49 (≈ 83.1 µM) | 6250 (≈ 10600 µM) | 49 (≈ 83.1 µM) | 98 (≈ 166 µM) | 12500 (≈ 21200 µM) | 49 (≈ 83.1 µM) | 781 (≈ 1320 µM) | 3120 (≈ 5300 µM) | 13 (≈ 22 µM) | 391 (≈ 663 µM) | 13 (≈ 22 µM) | 781 (≈ 1320 µM) | 13 (≈ 22 µM) | 25000 (≈ 42400 µM) | 49 (≈ 83.1 µM) | 49 (≈ 83.1 µM) | 781 (≈ 1320 µM) | 6250 (≈ 10600 µM) | – | MIC ([7]; 1321E, 18 h): 25 µg/mL (≈ 42.4 µM) |
| CO/N=C(\C(=O)N[C@@H]1C(=O)N2C(C(=O)[O-])=C(C[n+]3ccc(NC(C)=O)c4c3CCC4)CS[C@H]12)c1csc(N)n1 [Example 17, 7-β-[(Z)-2-(2-aminothiazol-4-yl)-2-methoxyiminoacetamido]-3-[(4-acetamido-2,3-cyclopenteno-1-pyridinium)methyl]-3-cephem-4-carboxylate] | 13 (≈ 22.7 µM) | 12500 (≈ 21900 µM) | 49 (≈ 85.7 µM) | 25 (≈ 43.7 µM) | 12500 (≈ 21900 µM) | 13 (≈ 22.7 µM) | 6250 (≈ 10900 µM) | 1560 (≈ 2730 µM) | – | 1560 (≈ 2730 µM) | < 2 | 781 (≈ 1370 µM) | 25 (≈ 43.7 µM) | – | 25 (≈ 43.7 µM) | 13 (≈ 22.7 µM) | – | 6250 (≈ 10900 µM) | 13 (≈ 22.7 µM) | MIC ([6]; A308, 18 h): < 2 µg/mL; MIC (Streptococcus faecium 8b; 8B, 18 h): 100000 µg/mL (≈ 175000 µM); MIC ([11]; Staphylococcus aureus, 503, 18 h): 195 µg/mL (≈ 341 µM) |
| CO/N=C(\C(=O)N[C@@H]1C(=O)N2C(C(=O)[O-])=C(C[n+]3ccc(NC=O)c4c3CCC4)CS[C@H]12)c1csc(N)n1 [Example 19] | 13 (≈ 23.3 µM) | 12500 (≈ 22400 µM) | 195 (≈ 350 µM) | 49 (≈ 87.9 µM) | 12500 (≈ 22400 µM) | 49 (≈ 87.9 µM) | 12500 (≈ 22400 µM) | 391 (≈ 701 µM) | < 2 | 1560 (≈ 2800 µM) | < 2 | 391 (≈ 701 µM) | 7 (≈ 12.6 µM) | 25000 (≈ 44800 µM) | 98 (≈ 176 µM) | 13 (≈ 23.3 µM) | 98 (≈ 176 µM) | 12500 (≈ 22400 µM) | 7 (≈ 12.6 µM) | – |
| CO/N=C(\C(=O)N[C@@H]1C(=O)N2C(C(=O)[O-])=C(C[n+]3ccc(-c4nc(C)cs4)c4c3CCC4)CS[C@H]12)c1csc(N)n1 [Example 25, 7-β-[(Z)-2-(2-aminothiazol-4-yl)-2-methoxyiminoacetamido]-3-[(2,3-cyclopenteno-4-(4-methylthiazol-2-yl)-1-pyridinium)methyl]-3-cephem-4-carboxylate] | 25 (≈ 40.9 µM) | 100000 (≈ 163000 µM) | – | 391 (≈ 639 µM) | 25000 (≈ 40900 µM) | 781 (≈ 1280 µM) | 50000 (≈ 81700 µM) | 781 (≈ 1280 µM) | 4 (≈ 6.54 µM) | 1560 (≈ 2560 µM) | 2 (≈ 3.27 µM) | – | 195 (≈ 319 µM) | 12500 (≈ 20400 µM) | 781 (≈ 1280 µM) | 25 (≈ 40.9 µM) | 195 (≈ 319 µM) | 50000 (≈ 81700 µM) | 98 (≈ 160 µM) | MIC (Salmonella typhimurium; TYPHIMURIUM, 18 h): 391 µg/mL (≈ 639 µM); MIC ([10]; SG511, 18 h): 391 µg/mL (≈ 639 µM) |
